The results in this text go back to ChEMBL document CHEMBL1145696, “Cytotoxic glycosides from Albizia julibrissin” (J Nat Prod, 1997).

Bounds are passed on as bounds.

For the assay, the system named is KB. As to the kind of experiment: Cytotoxicity against human KB cells by MTT assay. The assay is classed as functional, cell-based. (Tetrazolium assays rely on reduction of a dye to a coloured formazan, in cell work by metabolically active cells.)
For `CC(=O)N[C@H]1[C@H](O[C@H]2CC[C@]3(C)[C@H]4CC=C5[C@@H]6CC(C)(C)[C@@H]7C[C@]6(C(=O)O7)[C@H](O)C[C@@]5(C)[C@]4(C)CC[C@H]3C2(C)C)O[C@H](CO[C@@H]2O[C@H](C)[C@H](O)[C@H](O)[C@H]2O[C@@H]2OC[C@@H](O)[C@H](O)[C@H]2O)[C@@H](O)[C@@H]1O` [PORSAPOGENIN 7], the IC50 (as a rule, the concentration that inhibits the measured activity by half) is above 10 µg/mL.

Regarding `CC(=O)N[C@H]1[C@H](O[C@H]2CC[C@]3(C)[C@H]4CC=C5[C@@H]6CC(C)(C)[C@@H](O)C[C@]6(C(=O)O)[C@H](O)C[C@@]5(C)[C@]4(C)CC[C@H]3C2(C)C)O[C@H](CO[C@@H]2OC[C@H](O)[C@H](O)[C@H]2O[C@@H]2OC[C@@H](O)[C@H](O)[C@H]2O)[C@@H](O)[C@@H]1O` [PROSAPOGENIN 2], the IC50 was above 10 µg/mL.

On to `C[C@H]1O[C@@H](OC[C@H]2O[C@@H](O[C@H]3CC[C@]4(C)[C@H]5CC=C6[C@@H]7CC(C)(C)[C@@H](O)C[C@]7(C(=O)O)[C@H](O)C[C@@]6(C)[C@]5(C)CC[C@H]4C3(C)C)[C@H](O)[C@@H](O)[C@@H]2O)[C@H](O[C@@H]2OC[C@@H](O)[C@H](O)[C@H]2O)[C@@H](O)[C@H]1O` [PROSAPOGENIN 1], for which the 50% inhibitory concentration (IC50) was above 10 µg/mL.

In turn, `C=C[C@](C)(CC/C=C(\C)C(=O)O[C@H]1C[C@]2(C(=O)O[C@@H]3O[C@H](CO)[C@@H](O)[C@H](O)[C@H]3O[C@@H]3O[C@@H](C)[C@H](O[C@@H]4O[C@@H](CO)[C@H](O)[C@H]4O)[C@@H](O[C@@H]4O[C@H](CO)[C@@H](O)[C@H](O)[C@H]4O)[C@H]3O)[C@H](O)C[C@]3(C)C(=CC[C@@H]4[C@@]5(C)CC[C@H](O[C@@H]6O[C@H](CO[C@@H]7O[C@H](C)[C@H](O)[C@H](O)[C@H]7O[C@@H]7OC[C@@H](O)[C@H](O)[C@H]7O)[C@@H](O)[C@H](O)[C@H]6O[C@@H]6O[C@H](CO)[C@@H](O)[C@H](O)[C@H]6O)C(C)(C)[C@@H]5CC[C@]43C)[C@@H]2CC1(C)C)O[C@@H]1O[C@H](C)[C@@H](O)[C@H](O)[C@H]1O` [PORSAPOGENIN 8] showed an IC50 of 4500 nM. That is a single-digit micromolar value.

In turn, `C=C[C@](C)(CC/C=C(\C)C(=O)O[C@H]1C[C@]2(C(=O)O[C@@H]3O[C@H](CO)[C@@H](O)[C@H](O)[C@H]3O[C@@H]3O[C@@H](C)[C@H](O[C@@H]4O[C@@H](CO)[C@H](O)[C@H]4O)[C@@H](O[C@@H]4O[C@H](CO)[C@@H](O)[C@H](O)[C@H]4O)[C@H]3O)CC[C@]3(C)C(=CC[C@@H]4[C@@]5(C)CC[C@H](O[C@@H]6O[C@H](CO[C@@H]7O[C@H](C)[C@H](O)[C@H](O)[C@H]7O[C@@H]7OC[C@@H](O)[C@H](O)[C@H]7O)[C@@H](O)[C@H](O)[C@H]6O)C(C)(C)[C@@H]5CC[C@]43C)[C@@H]2CC1(C)C)O[C@@H]1O[C@H](C)[C@@H](O)[C@H](O)[C@H]1O` [PROSAPOGENIN 11] had a half-maximal inhibitory concentration (IC50) of 1600 nM.

The compound `C=C[C@](C)(CC/C=C(\C)C(=O)O[C@H]1[C@H](O)[C@@H](O)[C@H](O[C@](C)(C=C)CC/C=C(\C)C(=O)O[C@H]2C[C@]3(C(=O)O[C@@H]4O[C@H](CO)[C@@H](O)[C@H](O)[C@H]4O[C@@H]4O[C@@H](C)[C@H](O[C@@H]5O[C@@H](CO)[C@H](O)[C@H]5O)[C@@H](O[C@@H]5O[C@H](CO)[C@@H](O)[C@H](O)[C@H]5O)[C@H]4O)[C@H](O)C[C@]4(C)C(=CC[C@@H]5[C@@]6(C)CC[C@H](O[C@@H]7O[C@H](CO[C@@H]8O[C@H](C)[C@H](O)[C@H](O)[C@H]8O[C@@H]8OC[C@@H](O)[C@H](O)[C@H]8O)[C@@H](O)[C@H](O)[C@H]7NC(C)=O)C(C)(C)[C@@H]6CC[C@]54C)[C@@H]3CC2(C)C)O[C@@H]1C)O[C@@H]1O[C@H](C)[C@@H](O)[C@H](O)[C@H]1O` [JULIBROSIDE III] registered an IC50 of 900 nM.

On to `C=C[C@](C)(CC/C=C(\CO)C(=O)O[C@H]1C[C@]2(C(=O)O[C@@H]3O[C@H](CO)[C@@H](O)[C@H](O)[C@H]3O[C@@H]3O[C@@H](C)[C@H](O[C@@H]4O[C@@H](CO)[C@H](O)[C@H]4O)[C@@H](O[C@@H]4O[C@H](CO)[C@@H](O)[C@H](O)[C@H]4O)[C@H]3O)[C@H](O)C[C@]3(C)C(=CC[C@@H]4[C@@]5(C)CC[C@H](O[C@@H]6O[C@H](CO[C@@H]7O[C@H](C)[C@H](O)[C@H](O)[C@H]7O[C@@H]7OC[C@@H](O)[C@H](O)[C@H]7O)[C@@H](O)[C@H](O)[C@H]6O)C(C)(C)[C@@H]5CC[C@]43C)[C@@H]2CC1(C)C)O[C@@H]1O[C@H](C)[C@@H](O)[C@H](O)[C@H]1O` [PROSAPOGENIN 10], for which the IC50 amounted to 2000 nM.

Turning to `C[C@H]1O[C@@H](OC[C@H]2O[C@@H](O[C@H]3CC[C@]4(C)[C@H]5CC=C6[C@@H]7CC(C)(C)[C@@H]8C[C@]7(C(=O)O8)[C@H](O)C[C@@]6(C)[C@]5(C)CC[C@H]4C3(C)C)[C@H](O)[C@@H](O)[C@@H]2O)[C@H](O[C@@H]2OC[C@@H](O)[C@H](O)[C@H]2O)[C@@H](O)[C@H]1O` [PORSAPOGENIN 6], the IC50 is above 10 µg/mL.

For `CC(=O)N[C@H]1[C@H](O[C@H]2CC[C@]3(C)[C@H]4CC=C5[C@@H]6CC(C)(C)[C@@H]7C[C@]6(C(=O)O7)[C@H](O)C[C@@]5(C)[C@]4(C)CC[C@H]3C2(C)C)O[C@H](CO[C@@H]2OC[C@H](O)[C@H](O)[C@H]2O[C@@H]2OC[C@@H](O)[C@H](O)[C@H]2O)[C@@H](O)[C@@H]1O` [PROSAPOGENIN 4], the IC50 was above 10 µg/mL.

`C=C[C@](C)(CC/C=C(\C)C(=O)O[C@H]1C[C@]2(C(=O)O[C@@H]3O[C@H](CO)[C@@H](O)[C@H](O)[C@H]3O[C@@H]3O[C@@H](C)[C@H](O[C@@H]4O[C@@H](CO)[C@H](O)[C@H]4O)[C@@H](O[C@@H]4O[C@H](CO)[C@@H](O)[C@H](O)[C@H]4O)[C@H]3O)CC[C@]3(C)C(=CC[C@@H]4[C@@]5(C)CC[C@H](O[C@@H]6O[C@H](CO[C@@H]7O[C@H](C)[C@H](O)[C@H](O)[C@H]7O[C@@H]7OC[C@@H](O)[C@H](O)[C@H]7O)[C@@H](O)[C@H](O)[C@H]6OC6O[C@H](CO)[C@@H](O)[C@H](O)[C@H]6O)C(C)(C)[C@@H]5CC[C@]43C)[C@@H]2CC1(C)C)O[C@@H]1O[C@H](C)[C@@H](O)[C@H](O)[C@H]1O` (stereo not given in full) [PROSAPOGENIN 12] returned an IC50 above 10 µg/mL.

Regarding `C[C@H]1O[C@@H](OC[C@H]2O[C@@H](O[C@H]3CC[C@]4(C)[C@H]5CC=C6[C@@H]7CC(C)(C)[C@@H]8C[C@]7(C(=O)O8)[C@H](O)C[C@@]6(C)[C@]5(C)CC[C@H]4C3(C)C)[C@H](O[C@@H]3O[C@H](CO)[C@@H](O)[C@H](O)[C@H]3O)[C@@H](O)[C@@H]2O)[C@H](O[C@@H]2OC[C@@H](O)[C@H](O)[C@H]2O)[C@@H](O)[C@H]1O` [PORSAPOGENIN 5], the IC50 was above 10 µg/mL.

In turn, `C=C[C@](C)(CC/C=C(\C)C(=O)O[C@H]1[C@H](O)[C@@H](O)[C@H](O[C@](C)(C=C)CC/C=C(\C)C(=O)O[C@H]2C[C@]3(C(=O)O[C@@H]4O[C@H](CO)[C@@H](O)[C@H](O)[C@H]4O[C@@H]4O[C@@H](C)[C@H](O[C@@H]5O[C@@H](CO)[C@H](O)[C@H]5O)[C@@H](O[C@@H]5O[C@H](CO)[C@@H](O)[C@H](O)[C@H]5O)[C@H]4O)[C@H](O)C[C@]4(C)C(=CC[C@@H]5[C@@]6(C)CC[C@H](O[C@@H]7O[C@H](CO[C@@H]8O[C@H](C)[C@H](O)[C@H](O)[C@H]8O[C@@H]8OC[C@@H](O)[C@H](O)[C@H]8O)[C@@H](O)[C@H](O)[C@H]7O)C(C)(C)[C@@H]6CC[C@]54C)[C@@H]3CC2(C)C)O[C@@H]1C)O[C@@H]1O[C@H](C)[C@@H](O)[C@H](O)[C@H]1O` [JULIBROSIDE II] displayed an IC50 above 10 µg/mL.

`CC1(C)C[C@H]2C3=CC[C@@H]4[C@@]5(C)CC[C@H](O[C@@H]6O[C@H](CO[C@@H]7OC[C@H](O)[C@H](O)[C@H]7O[C@@H]7OC[C@@H](O)[C@H](O)[C@H]7O)[C@@H](O)[C@H](O)[C@H]6O)C(C)(C)[C@@H]5CC[C@@]4(C)[C@]3(C)C[C@@H](O)[C@@]23C[C@@H]1OC3=O` [PROSAPOGENIN 3] returned a half-maximal inhibitory concentration (IC50) above 10 µg/mL.

`C=C[C@](C)(CC/C=C(\C)C(=O)O[C@H]1[C@H](O)[C@@H](O)[C@H](O[C@](C)(C=C)CC/C=C(\C)C(=O)O[C@H]2C[C@]3(C(=O)O[C@@H]4O[C@H](CO)[C@@H](O)[C@H](O)[C@H]4O[C@@H]4O[C@@H](C)[C@H](O[C@@H]5O[C@@H](CO)[C@H](O)[C@H]5O)[C@@H](O[C@@H]5O[C@H](CO)[C@@H](O)[C@H](O)[C@H]5O)[C@H]4O)[C@H](O)C[C@]4(C)C(=CC[C@@H]5[C@@]6(C)CC[C@H](O[C@@H]7O[C@H](CO[C@@H]8O[C@H](C)[C@H](O)[C@H](O)[C@H]8O[C@@H]8OC[C@@H](O)[C@H](O)[C@H]8O)[C@@H](O)[C@H](O)[C@H]7O[C@@H]7O[C@H](CO)[C@@H](O)[C@H](O)[C@H]7O)C(C)(C)[C@@H]6CC[C@]54C)[C@@H]3CC2(C)C)O[C@@H]1C)O[C@@H]1O[C@H](C)[C@@H](O)[C@H](O)[C@H]1O` [JULIBROSIDE I] came in with an IC50 above 10 µg/mL.

With `C=C[C@](C)(CC/C=C(\C)C(=O)O[C@H]1C[C@]2(C(=O)O[C@@H]3O[C@H](CO)[C@@H](O)[C@H](O)[C@H]3O[C@@H]3O[C@@H](C)[C@H](O[C@@H]4O[C@@H](CO)[C@H](O)[C@H]4O)[C@@H](O[C@@H]4O[C@H](CO)[C@@H](O)[C@H](O)[C@H]4O)[C@H]3O)[C@H](O)C[C@]3(C)C(=CC[C@@H]4[C@@]5(C)CC[C@H](O[C@@H]6O[C@H](CO[C@@H]7O[C@H](C)[C@H](O)[C@H](O)[C@H]7O[C@@H]7OC[C@@H](O)[C@H](O)[C@H]7O)[C@@H](O)[C@H](O)[C@H]6O)C(C)(C)[C@@H]5CC[C@]43C)[C@@H]2CC1(C)C)O[C@@H]1O[C@H](C)[C@@H](O)[C@H](O)[C@H]1O` [PORSAPOGENIN 9], the IC50 is 1600 nM.
